This note sets out measurements from US20230382949A1 (HEPTARES THERAPEUTICS LIMITED, priority 2020, published 2023).

A word on the Emax: it is the maximal effect, on the per cent scale that the assay sets.

Read-outs that look alike come from different tables or passages of the source. Starred links: 1 amine or outer side, 2 acyl side, 3 side chain; linkers in the order of their positions; H or OH if unused. Non-standard residues stand in square brackets, D forms with d. Residues, ends and D or L forms follow the SMILES beside them. *: point of attachment. Ala(piperidin-4-yl) = O=C([C@H](CC1CCN([*:3])CC1)N[*:1])[*:2]; Malonyl(2,2-Me2,histaminyl) = CC(C)(C(=O)NCCc1cnc[nH]1)C(=O)*; dNMeBip = CN[C@H](Cc1ccc(-c2ccccc2)cc1)C(=O)O; dBip = N[C@H](Cc1ccc(-c2ccccc2)cc1)C(=O)O; Oic = O=C(O)[C@@H]1C[C@@H]2CCCC[C@@H]2N1; Phe(4-Br) = N[C@@H](Cc1ccc(Br)cc1)C(=O)O; X4 = CC(C)(C(=O)NCCCc1cnc[nH]1)C(=O)*; hArg = N=C(N)NCCCC[C@H](N)C(=O)O; 3Pal = N[C@@H](Cc1cccnc1)C(=O)O; NMeQ = CN[C@@H](CCC(N)=O)C(=O)O; Pip = O=C(O)[C@@H]1CCCCN1; Nle = CCCC[C@H](N)C(=O)O; Aib = CC(C)(N)C(=O)O

Experiment [1] deals with T1, human Apelin receptor (Homo sapiens, UniProt P35414).
T1 sequence (P35414 1-380): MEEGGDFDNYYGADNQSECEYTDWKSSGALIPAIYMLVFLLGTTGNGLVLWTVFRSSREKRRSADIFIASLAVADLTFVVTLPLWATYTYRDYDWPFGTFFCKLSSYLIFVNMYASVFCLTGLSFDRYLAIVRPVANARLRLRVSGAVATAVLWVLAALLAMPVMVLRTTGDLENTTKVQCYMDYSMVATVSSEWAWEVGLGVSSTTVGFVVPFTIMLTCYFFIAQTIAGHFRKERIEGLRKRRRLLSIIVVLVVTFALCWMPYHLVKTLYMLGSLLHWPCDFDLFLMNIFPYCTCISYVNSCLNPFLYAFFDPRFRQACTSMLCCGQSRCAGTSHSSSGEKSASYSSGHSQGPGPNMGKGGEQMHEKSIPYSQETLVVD
As to the kind of experiment: cAMP accumulation assay (HTRF), functional agonism of human Apelin receptors. It counts as cell-based. To be noted: for Emax: CHO. The text has this: cAMP functional assay. cAMP production was quantified using the Homogeneous Time-Resolved Fluorescence (HTRF) cAMP dynamic-2 assay (Cisbio, France).
(Changes in cAMP serve as a functional read-out for many G protein-coupled receptors.)

The target of experiment [2] is T2, human Apelin receptor (Homo sapiens, UniProt P35414).
T2 construct: host or cells: CHO-K1 cells
As to the kind of experiment: β-arrestin accumulation assay, functional agonism of human Apelin receptors. The experiment is classed as cell-based. In short, it runs like this:
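After 16 h at 37° C., cells were exposed to increasing agonist concentrations in serum-free medium for 90 min at 37° C. Detection reagent added for 60 min in the dark; receptor activation read by fluorescence and EC50 derived from concentration-response curves.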
T2 sequence (P32121 whole entry partner, one chain of several): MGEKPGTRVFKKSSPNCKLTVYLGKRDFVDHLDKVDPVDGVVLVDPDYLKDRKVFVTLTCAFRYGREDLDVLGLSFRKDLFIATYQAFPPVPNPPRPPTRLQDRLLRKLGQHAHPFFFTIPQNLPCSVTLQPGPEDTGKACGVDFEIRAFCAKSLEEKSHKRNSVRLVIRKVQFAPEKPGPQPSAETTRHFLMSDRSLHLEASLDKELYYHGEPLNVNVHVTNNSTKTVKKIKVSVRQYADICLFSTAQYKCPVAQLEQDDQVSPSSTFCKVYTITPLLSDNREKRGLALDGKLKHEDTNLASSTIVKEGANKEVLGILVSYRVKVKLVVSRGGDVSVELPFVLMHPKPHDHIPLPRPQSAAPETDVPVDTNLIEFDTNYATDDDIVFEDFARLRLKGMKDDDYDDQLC

Setting [3] is: Human Apelin agonist cAMP assay, CHO cells stably expressing the human Apelin receptor, 3 uM forskolin.
The mark [4] stands for this setting: pEC50, Human Apelin agonist cAMP assay, CHO cells stably expressing the human Apelin receptor, 3 uM forskolin.

Turning to `CC(C)C[C@H](NC(=O)[C@@H](CCCNC(=N)N)NC(=O)[C@@H]1CCCCN1C(=O)[C@H](CCCCNC(=N)N)NC(=O)[C@H](CCC(N)=O)NC(=O)C(C)(C)C(=O)NCCc1cnc[nH]1)C(=O)NC(C)(C)C(=O)N[C@@H](Cc1c[nH]cn1)C(=O)N[C@@H](CC1CCNCC1)C(=O)N[C@@H](C)C(=O)N1[C@H](C(=O)N[C@@H](Cc2ccc(Br)cc2)C(=O)N2CCC[C@H]2C(=O)N[C@H](Cc2ccc(-c3ccccc3)cc2)C(=O)O)C[C@@H]2CCCC[C@@H]21` [Example 54] ({Malonyl(2,2-Me2,histaminyl)}-Q[hArg][Pip][dR]L[Aib]H[Ala(piperidin-4-yl)]A[Oic][Phe(4-Br)]P[dBip]-OH), in experiment [1] (read-out: Emax), the Emax was found to be 61.2%. The figures for the EC50 in experiment [1] (read-out: pEC50 (converted)) and in experiment [2] were 1.26 nM and over 10000 nM, respectively.

Turning to `CC(C)C[C@H](NC(=O)[C@@H](CCCNC(=N)N)NC(=O)[C@@H]1CCCCN1C(=O)[C@H](CCCNC(=N)N)NC(=O)[C@H](CCC(N)=O)NC(=O)C(C)(C)C(=O)NCCc1cnc[nH]1)C(=O)NC(C)(C)C(=O)N[C@@H](Cc1c[nH]cn1)C(=O)N[C@@H](CC1CCNCC1)C(=O)NCC(=O)N1[C@H](C(=O)N[C@@H](Cc2ccc(Br)cc2)C(=O)N2CCC[C@H]2C(=O)N[C@H](Cc2ccc(-c3ccccc3)cc2)C(=O)O)C[C@@H]2CCCC[C@@H]21` [Example 55] ({Malonyl(2,2-Me2,histaminyl)}-QR[Pip][dR]L[Aib]H[Ala(piperidin-4-yl)]G[Oic][Phe(4-Br)]P[dBip]-OH), the Emax in experiment [1] (read-out: Emax) stood at 85.9%. For the same molecule, the values for the EC50 in experiment [1] (read-out: pEC50 (converted)) and in experiment [2] were 12.6 nM and over 10000 nM, respectively.

Take `CC(C)C[C@H](NC(=O)[C@@H](CCCNC(=N)N)NC(=O)[C@@H]1CCCCN1C(=O)[C@H](CCCCNC(=N)N)NC(=O)[C@H](CCC(N)=O)NC(=O)C(C)(C)C(=O)NCCc1cnc[nH]1)C(=O)NC(C)(C)C(=O)N[C@@H](Cc1cccnc1)C(=O)N[C@@H](CC1CCNCC1)C(=O)NCC(=O)N1[C@H](C(=O)N[C@@H](Cc2ccc(Br)cc2)C(=O)N2CCC[C@H]2C(=O)N[C@H](Cc2ccc(-c3ccccc3)cc2)C(=O)O)C[C@@H]2CCCC[C@@H]21` [Example 56] ({Malonyl(2,2-Me2,histaminyl)}-Q[hArg][Pip][dR]L[Aib][3Pal][Ala(piperidin-4-yl)]G[Oic][Phe(4-Br)]P[dBip]-OH): the Emax in experiment [1] (read-out: Emax) is 68.1%. The EC50 is 20 nM in experiment [1] (read-out: pEC50 (converted)) and over 10000 nM in experiment [2].

As to `CC(C)C[C@H](NC(=O)[C@@H](CCCNC(=N)N)NC(=O)[C@@H]1CCCN1C(=O)[C@H](CCCCNC(=N)N)NC(=O)[C@H](CCC(N)=O)NC(=O)C(C)(C)C(=O)NCCc1cnc[nH]1)C(=O)NC(C)(C)C(=O)N[C@@H](Cc1cnc[nH]1)C(=O)N[C@@H](CC1CCNCC1)C(=O)NCC(=O)N1[C@H](C(=O)N[C@@H](Cc2ccc(Br)cc2)C(=O)N2CCC[C@H]2C(=O)N(C)[C@H](Cc2ccc(-c3ccccc3)cc2)C(=O)O)C[C@@H]2CCCC[C@@H]21` [Example 57] ({Malonyl(2,2-Me2,histaminyl)}-Q[hArg]P[dR]L[Aib]H[Ala(piperidin-4-yl)]G[Oic][Phe(4-Br)]P[dNMeBip]-OH), in experiment [1] (setting [3]), the Emax stood at 45.9%. Also, the EC50 in experiment [1] (setting [4]) was 63.1 nM; in experiment [2] it was over 10000 nM.

In turn, `CC(C)C[C@H](NC(=O)[C@@H](CCCNC(=N)N)NC(=O)[C@@H]1CCCN1C(=O)[C@H](CCCCNC(=N)N)NC(=O)[C@H](CCC(N)=O)N(C)C(=O)C(C)(C)C(=O)NCCc1cnc[nH]1)C(=O)NC(C)(C)C(=O)N[C@@H](Cc1c[nH]cn1)C(=O)N[C@@H](CC1CCNCC1)C(=O)NCC(=O)N1[C@H](C(=O)N[C@@H](Cc2ccc(Br)cc2)C(=O)N2CCC[C@H]2C(=O)N[C@H](Cc2ccc(-c3ccccc3)cc2)C(=O)O)C[C@@H]2CCCC[C@@H]21` [Example 58] ({Malonyl(2,2-Me2,histaminyl)}-[NMeQ][hArg]P[dR]L[Aib]H[Ala(piperidin-4-yl)]G[Oic][Phe(4-Br)]P[dBip]-OH) registered an Emax in experiment [1] (setting [3]) of 33%. For the same molecule, the values for the EC50 in experiment [1] (setting [4]) and in experiment [2] were 794 nM and over 100000 nM, respectively.

In the case of `CCCC[C@H](NC(=O)[C@@H]1C[C@@H]2CCCC[C@@H]2N1C(=O)CNC(=O)[C@H](CC1CCNCC1)NC(=O)[C@H](Cc1c[nH]cn1)NC(=O)[C@@H](C)NC(=O)[C@H](CC(C)C)NC(=O)[C@H](CCCNC(=N)N)NC(=O)[C@@H]1CCCN1C(=O)[C@H](CCCNC(=N)N)NC(=O)[C@H](CCC(N)=O)NC(=O)C(C)(C)C(=O)NCCc1cnc[nH]1)C(=O)N1CCC[C@H]1C(=O)N[C@H](Cc1ccc(-c2ccccc2)cc1)C(=O)O` [Example 59] ({Malonyl(2,2-Me2,histaminyl)}-QRPRL[dA]H[Ala(piperidin-4-yl)]G[Oic][Nle]P[dBip]-OH), the Emax in experiment [1] (setting [3]) came to 48.1%. Also, the EC50 is 100 nM in experiment [1] (setting [4]) and over 10000 nM in experiment [2].

For the molecule `CCCC[C@H](NC(=O)[C@@H]1C[C@@H]2CCCC[C@@H]2N1C(=O)CNC(=O)[C@H](CC1CCNCC1)NC(=O)[C@H](Cc1ccc(Br)cc1)NC(=O)C(C)(C)NC(=O)[C@H](CC(C)C)NC(=O)[C@@H](CCCNC(=N)N)NC(=O)[C@@H]1CCCN1C(=O)[C@H](CCCCNC(=N)N)NC(=O)[C@H](CCC(N)=O)NC(=O)C(C)(C)C(=O)NCCc1cnc[nH]1)C(=O)N1CCC[C@H]1C(=O)N[C@H](Cc1ccc(-c2ccccc2)cc1)C(=O)O` [Example 60] ({Malonyl(2,2-Me2,histaminyl)}-Q[hArg]P[dR]L[Aib][Phe(4-Br)][Ala(piperidin-4-yl)]G[Oic][Nle]P[dBip]-OH), the maximal response (Emax) in experiment [1] (read-out: Emax) is 59%. Further, the figures for the EC50 in experiment [1] (read-out: pEC50 (converted)) and in experiment [2] were 50.1 nM and over 10000 nM, respectively.

The molecule `CC(C)C[C@H](NC(=O)[C@@H](CCCNC(=N)N)NC(=O)[C@@H]1CCCN1C(=O)[C@H](CCCCNC(=N)N)NC(=O)[C@H](CCC(N)=O)NC(=O)C(C)(C)C(=O)NCCCc1cnc[nH]1)C(=O)NC(C)(C)C(=O)N[C@@H](Cc1c[nH]cn1)C(=O)N[C@@H](CC1CCNCC1)C(=O)NCC(=O)N1[C@H](C(=O)N[C@@H](Cc2ccc(Br)cc2)C(=O)N2CCC[C@H]2C(=O)N[C@H](Cc2ccc(-c3ccccc3)cc2)C(=O)O)C[C@@H]2CCCC[C@@H]21` [Example 61] (X4-Q[hArg]P[dR]L[Aib]H[Ala(piperidin-4-yl)]G[Oic][Phe(4-Br)]P[dBip]-OH) showed an Emax in experiment [1] (setting [3]) of 41.8%. Also, the EC50 in experiment [1] (setting [4]) was 10 nM; in experiment [2], over 100000 nM.

Consider `CCCC[C@H](NC(=O)[C@@H]1C[C@@H]2CCCC[C@@H]2N1C(=O)[C@H](C)NC(=O)[C@H](CC1CCNCC1)NC(=O)[C@H](Cc1ccc(Br)cc1)NC(=O)C(C)(C)NC(=O)[C@H](CC(C)C)NC(=O)[C@@H](CCCNC(=N)N)NC(=O)[C@@H]1CCCCN1C(=O)[C@H](CCCCNC(=N)N)NC(=O)[C@H](CCC(N)=O)NC(=O)C(C)(C)C(=O)NCCc1cnc[nH]1)C(=O)N1CCC[C@H]1C(=O)N[C@H](Cc1ccc(-c2ccccc2)cc1)C(=O)O` [Example 62] ({Malonyl(2,2-Me2,histaminyl)}-Q[hArg][Pip][dR]L[Aib][Phe(4-Br)][Ala(piperidin-4-yl)]A[Oic][Nle]P[dBip]-OH), for which the maximal effect (Emax) in experiment [1] (read-out: Emax) stood at 31.7%. Further, the EC50 in experiment [1] (read-out: pEC50 (converted)) is 100 nM; in experiment [2], over 10000 nM.
